Patent US12459926B2, “THRβ receptor agonist compound and preparation method and use thereof” (Terns, Inc., priority 2018, dated 2025)

Columns and labels:
TRβ LBD = TRβ LBD (Homo sapiens, UniProt P10828); conditions: ratio of THRα to THRβ binding force
Method: Main Experimental Material and Apparatus:
All compounds were dissolved in dimethyl sulfoxide to prepare a 10 mmol stock solution.
For long-term storage, compounds shall be placed into a refrigerator at −20° C.
3.1 Preparation of 1× Reaction Buffer

[1] = Pharmacokinetic evaluation in rats after intragastric infusion; type: in vivo; conditions: male SD rats, 2 mg/kg single dose, plasma
Method: Rats were used as test animals. […] The pharmacokinetic behaviors of the compounds of the present invention in rats were studied, and the pharmaceutical metabolism characteristics thereof were evaluated. […] The non-compartment model method (NCA) was utilized to calculate the pharmacokinetic parameters, particularly as shown in Table 2 below.
Drug Preparation: a certain amount of the drug was taken and added into a 2% Klucel LF+0.1% Tween 80 aqueous solution, to prepare a clear solution or a uniform suspension.
Dosage: SD rats were fasted overnight and given the drug by intragastric infusion at an administrated dose of 2 mg/kg and an administrated volume of 10 mL/kg each.
The heparinized sample tubes were then stored at −20° C., and the rats were allowed to eat food 2 h after the dosage.
Determination of contents of the compounds to be tested in the plasma of rats after intragastric infusion of the drugs at different concentrations: the plasma samples were thawed at room temperature, 50 μL each was taken and added into 130 μL of an internal standard working solution (1000 ng/mL, acetonitrile, tolbutamide), and the mixture was whirled for about 1 min and then centrifugated at 4° C. and 13000 rpm for 10 min. 50 μL of the supernatant was taken and mixed with 100 μL of 50% acetonitrile water, and then introduced for LC/MS/MS analysis.

Sequence of TRβ LBD (P10828 217-461 limits assumed, other chains not shown): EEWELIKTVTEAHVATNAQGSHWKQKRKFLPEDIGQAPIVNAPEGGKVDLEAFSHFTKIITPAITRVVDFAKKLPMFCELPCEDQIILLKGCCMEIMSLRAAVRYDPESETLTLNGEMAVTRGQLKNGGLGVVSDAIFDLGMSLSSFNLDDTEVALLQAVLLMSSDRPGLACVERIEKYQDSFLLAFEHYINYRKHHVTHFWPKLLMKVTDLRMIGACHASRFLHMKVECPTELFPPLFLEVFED
Sequence of TRβ LBD (P28702 whole entry partner, other chains not shown, the tested form may be a part): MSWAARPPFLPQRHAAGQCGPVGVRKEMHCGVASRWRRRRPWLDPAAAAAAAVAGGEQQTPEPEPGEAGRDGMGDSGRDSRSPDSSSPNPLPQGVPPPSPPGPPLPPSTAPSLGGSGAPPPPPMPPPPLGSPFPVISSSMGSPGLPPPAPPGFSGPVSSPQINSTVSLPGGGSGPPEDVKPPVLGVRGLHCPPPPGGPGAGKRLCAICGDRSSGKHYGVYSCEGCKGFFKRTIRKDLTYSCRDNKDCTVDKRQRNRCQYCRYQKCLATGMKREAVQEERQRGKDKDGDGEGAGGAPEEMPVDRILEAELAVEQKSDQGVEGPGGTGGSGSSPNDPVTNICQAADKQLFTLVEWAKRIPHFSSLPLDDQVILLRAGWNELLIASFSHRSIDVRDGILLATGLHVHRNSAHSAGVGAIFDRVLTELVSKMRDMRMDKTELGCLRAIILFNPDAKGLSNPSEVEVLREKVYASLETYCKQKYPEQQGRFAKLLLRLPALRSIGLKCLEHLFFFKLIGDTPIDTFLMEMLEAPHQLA

| Compound | THRα/β selectivity (factor) (TRβ LBD) | Curve area [1] | Time to peak [1] | half-life ([1]; rat, po) |
| --- | --- | --- | --- | --- |
| N#Cc1nn(-c2cc(Cl)c(Oc3n[nH]c(=O)c4c3CCCC4)c(Cl)c2)c(=O)[nH]c1=O [Embodiment 1, 2-(3,5-dichloro-4-((4-oxo-3,4,5,6,7,8-hexahydrophthalazin-1-yl)oxy)phenyl)-3,5-dioxo-2,3,4,5-tetrahydro-1,2,4-triazine-6-nitrile] | >8.1 factor |  |  |  |
| CC1(C)CCc2c(Oc3c(Cl)cc(-n4nc(C#N)c(=O)[nH]c4=O)cc3Cl)n[nH]c(=O)c21 [Embodiment 4, 2-(3,5-dichloro-4-((7,7-dimethyl-1-oxo-2,5,6,7-tetrahydro-1H-cyclopenta[d]pyridazin-4-yl)oxy)phenyl)-3,5-dioxo-2,3,4,5-tetrahydro-1,2,4-triazine-6-carbonitrile] |  | 9242 ± 1245 ng·h/mL | 5.33 ± 1.15 h | 5.14 ± 0.83 h |
| N#Cc1nn(-c2cc(Cl)c(Oc3n[nH]c(=O)c4ccccc34)c(Cl)c2)c(=O)[nH]c1=O [Embodiment 9, 2-(3,5-dichloro-4-((4-oxo-3,4-dihydrophthalazin-1-yl)oxo)phenyl)-3,5-dioxo-2,3,4,5-tetrahydro-1,2,4-triazine-6-nitrile] | >58.8 factor |  |  |  |
| N#Cc1nn(-c2cc(Cl)c(Oc3n[nH]c(=O)c4c(Cl)cccc34)c(Cl)c2)c(=O)[nH]c1=O [Embodiment 10, 2-(3,5-dichloro-4-((5-chloro-4-oxo-3,4-dihydrophthalazin-1-yl)oxo)phenyl)-3,5-dioxo-2,3,4,5-tetrahydro-1,2,4-triazine-6-nitrile] | >6.80 factor |  |  |  |
